In this assay the target is Serine protease 1 (Homo sapiens, UniProt P07477). Description: Enzymatic Activity Assay.

The values that follow come from BindingDB's records for patent US11584735 (Kalvista Pharmaceuticals, 2023).

Sequence of Serine protease 1 (P07477 whole entry): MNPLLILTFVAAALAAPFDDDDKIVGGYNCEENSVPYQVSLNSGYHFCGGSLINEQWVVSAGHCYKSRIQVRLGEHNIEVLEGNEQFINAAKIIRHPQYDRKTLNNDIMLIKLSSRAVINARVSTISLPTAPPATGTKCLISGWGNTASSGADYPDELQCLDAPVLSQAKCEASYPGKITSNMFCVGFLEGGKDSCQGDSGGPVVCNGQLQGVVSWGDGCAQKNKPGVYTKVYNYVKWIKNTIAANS
Protocol: Human serine protease enzymes plasmin, thrombin and trypsin were assayed for enzymatic activity using an appropriate fluorogenic substrate. Protease activity was measured by monitoring the accumulation of liberated fluorescence from the substrate over 5 minutes. The linear rate of fluorescence increase per minute was expressed as percentage (%) activity. The Km for the cleavage of each substrate was determined by standard transformation of the Michaelis-Menten equation.

The IC50 is the concentration that gives 50% inhibition. Low readings indicate inhibition by little substance, high ones a need for much substance. For the compound `COCc1nn(Cc2ccc(Cn3cc(F)ccc3=O)cc2)cc1C(=O)NCc1nccc(OC)c1F` [US11584735, Compound of Formula A], the half-maximal inhibitory concentration (IC50) is greater than 40 µM.
